Assay results taken from ChEMBL document CHEMBL4330064, “Phytoestrogens and their synthetic analogues as substrate mimic inhibitors of CYP1B1” (Eur J Med Chem, 2019).
pIC50, pKi: −log10 of the molar value.

Assays:
Cytochrome P450 1B1 [1] = target: T1, Cytochrome P450 1B1 (Homo sapiens, UniProt Q16678); assay: Inhibition of human CYP1B1 using 7-Ethoxyresorufin as substrate after 30 mins in presence of NADP+ by EROD assay
T1 sequence (Q16678 whole entry): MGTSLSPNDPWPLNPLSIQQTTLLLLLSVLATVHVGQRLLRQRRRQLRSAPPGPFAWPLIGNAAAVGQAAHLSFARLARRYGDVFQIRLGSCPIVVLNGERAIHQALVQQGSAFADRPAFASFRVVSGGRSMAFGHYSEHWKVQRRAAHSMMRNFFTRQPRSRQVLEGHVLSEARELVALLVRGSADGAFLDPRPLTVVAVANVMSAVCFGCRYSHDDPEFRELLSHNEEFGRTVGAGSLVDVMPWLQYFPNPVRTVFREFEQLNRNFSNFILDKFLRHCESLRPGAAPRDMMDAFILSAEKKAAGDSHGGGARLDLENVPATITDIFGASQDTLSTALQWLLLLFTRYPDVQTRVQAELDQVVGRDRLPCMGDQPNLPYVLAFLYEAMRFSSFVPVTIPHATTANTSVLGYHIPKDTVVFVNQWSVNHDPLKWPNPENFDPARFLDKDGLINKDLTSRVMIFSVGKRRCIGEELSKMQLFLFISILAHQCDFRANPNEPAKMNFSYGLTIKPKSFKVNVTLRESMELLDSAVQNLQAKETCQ

Cytochrome P450 1A1 [2] = target: T2, Cytochrome P450 1A1 (Homo sapiens, UniProt P04798); assay: Inhibition of human CYP1A1 by EROD assay; assay type: ADME
T2 sequence (P04798 whole entry): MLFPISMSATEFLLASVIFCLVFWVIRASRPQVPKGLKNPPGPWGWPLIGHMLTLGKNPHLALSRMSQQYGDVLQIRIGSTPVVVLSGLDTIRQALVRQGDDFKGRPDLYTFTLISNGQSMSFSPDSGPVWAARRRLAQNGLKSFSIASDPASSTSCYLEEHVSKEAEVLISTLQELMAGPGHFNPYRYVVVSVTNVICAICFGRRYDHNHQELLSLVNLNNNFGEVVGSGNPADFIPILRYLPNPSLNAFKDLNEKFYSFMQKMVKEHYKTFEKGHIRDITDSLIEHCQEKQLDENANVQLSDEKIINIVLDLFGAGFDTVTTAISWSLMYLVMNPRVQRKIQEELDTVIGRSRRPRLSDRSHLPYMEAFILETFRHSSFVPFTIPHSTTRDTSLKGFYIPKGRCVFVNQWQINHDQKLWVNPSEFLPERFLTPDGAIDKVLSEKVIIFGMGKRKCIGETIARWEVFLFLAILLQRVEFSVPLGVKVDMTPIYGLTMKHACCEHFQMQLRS

Cytochrome P450 1A1 [3] = target: T2, Cytochrome P450 1A1; assay: Inhibition of […] CYP1A1 expressed in Escherichia coli DH5alpha cell membranes coexpressing human NADPH-cytochrome P450 reductase using 7-Ethoxyresorufin as substrate preincubated for 3 mins followed by NADPH addition measured after 10 mins by EROD assay; assay type: ADME
Cytochrome P450 1B1 [4] = target: T1, Cytochrome P450 1B1; assay: Inhibition of […] CYP1B1 expressed in Escherichia coli DH5alpha cell membranes coexpressing human NADPH-cytochrome P450 reductase using 7-Ethoxyresorufin as substrate preincubated for 3 mins followed by NADPH addition measured after 10 mins by EROD assay
Cytochrome P450 1A2 [5] = target: T3, Cytochrome P450 1A2 (Homo sapiens, UniProt P05177); assay: Inhibition of […] CYP1A2 expressed in Escherichia coli DH5alpha cell membranes coexpressing human NADPH-cytochrome P450 reductase using 7-Ethoxyresorufin as substrate preincubated for 3 mins followed by NADPH addition measured after 10 mins by EROD assay; assay type: ADME
T3 sequence (P05177 whole entry): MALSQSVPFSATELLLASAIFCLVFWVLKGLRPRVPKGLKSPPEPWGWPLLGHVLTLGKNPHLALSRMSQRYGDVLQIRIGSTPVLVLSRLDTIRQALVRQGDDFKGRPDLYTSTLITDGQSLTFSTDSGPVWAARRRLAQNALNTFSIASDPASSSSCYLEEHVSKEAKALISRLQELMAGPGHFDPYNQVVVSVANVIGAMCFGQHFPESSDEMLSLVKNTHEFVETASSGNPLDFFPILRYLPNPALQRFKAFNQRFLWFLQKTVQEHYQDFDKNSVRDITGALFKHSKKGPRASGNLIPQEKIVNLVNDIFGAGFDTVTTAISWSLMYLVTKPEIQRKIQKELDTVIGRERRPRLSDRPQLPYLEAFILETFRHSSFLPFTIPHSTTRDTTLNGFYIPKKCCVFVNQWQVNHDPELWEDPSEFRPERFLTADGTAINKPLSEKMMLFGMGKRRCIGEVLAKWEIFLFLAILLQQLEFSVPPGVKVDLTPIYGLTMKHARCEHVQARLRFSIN

Cytochrome P450 1B1 [6] = target: T1, Cytochrome P450 1B1; assay: Inhibition of CYP1B1 in human MCF7 cells assessed as reduction in DMBA-induced CYP1B1-mediated EROD activity by EROD assay; assay type: cell-based
Cytochrome P450 1B1 [7] = target: T1, Cytochrome P450 1B1; assay: Inhibition of CYP1B1 in human MCF7 cells assessed as reduction in TCDD-induced CYP1B1-mediated EROD activity by EROD assay; assay type: cell-based
Cytochrome P450 1B1 [8] = target: T1, Cytochrome P450 1B1; assay: Inhibition of human CYP1B1 expressed in Escherichia coli DH5alpha cell membranes coexpressing human NADPH-cytochrome P450 reductase using 7-Ethoxyresorufin as substrate by EROD assay
Cytochrome P450 1B1 [9] = target: T1, Cytochrome P450 1B1; assay: Inhibition of CYP1B1 in human HepG2 cells; assay type: cell-based
Cytochrome P450 1A1 [10] = target: T2, Cytochrome P450 1A1; assay: Inhibition of human CYP1A1 using ethoxyresorufin as substrate by EROD assay; assay type: ADME
Cytochrome P450 1A1 [11] = target: T2, Cytochrome P450 1A1; assay: Inhibition of human CYP1A1 using ethoxyresorufin as substrate by MROD assay; assay type: ADME
Cytochrome P450 1B1 [12] = target: T1, Cytochrome P450 1B1; assay: Mixed type inhibition of human CYP1B1 by EROD assay
Cytochrome P450 1B1 [13] = target: T1, Cytochrome P450 1B1
Description: Inhibition of human CYP1B1 by EROD assay

Cytochrome P450 1A1 [14] = target: T2, Cytochrome P450 1A1; assay: Inhibition of human CYP1A1 using 7-Ethoxyresorufin as substrate after 15 mins in presence of NADP+ by EROD assay; assay type: ADME
Cytochrome P450 1A2 [15] = target: T3, Cytochrome P450 1A2; assay: Inhibition of human CYP1A2 using 7-Ethoxyresorufin as substrate after 50 mins in presence of NADP+ by EROD assay; assay type: ADME

Compound	INH (Cytochrome P450 1A1 [3])	INH (Cytochrome P450 1B1 [4])	INH (Cytochrome P450 1A2 [5])	also measured
COc1cc2c(=O)cc(-c3cccc(Br)c3)[nH]c2c2c(OC)cccc12	–	–	–	pIC50 (Cytochrome P450 1B1 [1]): 8.44
COc1ccc2c(c(OC)cc3c(=O)cc(-c4ccc(F)cc4)oc32)c1OC	–	–	–	pIC50 (Cytochrome P450 1A1 [2]): 9.00
O=c1c(O)c(-c2ccc(O)cc2)oc2cc(O)cc(O)c12 [KAEMPFEROL]	52 µM	–	–	–
O=c1cc(-c2ccccc2)oc2cc(O)cc(O)c12 [CHRYSIN]	6.2 µM	0.28 µM	0.42 µM	–
O=c1cc(-c2ccc(O)c(O)c2)oc2cc(O)cc(O)c12 [LUTEOLIN]	1.2 µM	0.36 µM	8.9 µM	–
C[C@]12CCCCC1=CC[C@@H]1[C@@H]2CC[C@]2(C)C(=O)[C@H](F)C[C@@H]12	–	–	–	pIC50 (Cytochrome P450 1B1 [6]): 6.30; pIC50 (Cytochrome P450 1B1 [7]): 5.60
COc1ccc2cc3[n+](cc2c1OC)CCc1cc2c(cc1-3)OCO2 [BERBERINE]	–	–	–	pIC50 (Cytochrome P450 1B1 [8]): 7.03; pIC50 (Cytochrome P450 1B1 [9]): 5.60
O=c1c(O)c(-c2ccc(O)c(O)c2)oc2cc(O)cc(O)c12 [QUERCETIN]	77 µM	23 µM	418 µM	–
COc1cc(-c2oc3cc(O)cc(O)c3c(=O)c2O)ccc1O [ISORHAMNETIN]	25 µM	30.1 µM	137 µM	–
Oc1ccc(/C=C/c2cc(O)cc(O)c2)cc1 [RESVERATROL]	–	–	–	pIC50 (Cytochrome P450 1A1 [10]): 4.64; pIC50 (Cytochrome P450 1A1 [11]): 4.96; pKi (Cytochrome P450 1B1 [12]): 6.12; pIC50 (Cytochrome P450 1B1 [13]): 5.85
COc1cc2c(=O)cc(-c3ccc(F)cc3)[nH]c2c2c(OC)cccc12	–	–	–	pIC50 (Cytochrome P450 1B1 [1]): 8.41; pIC50 (Cytochrome P450 1A1 [14]): 7.98; pIC50 (Cytochrome P450 1A2 [15]): 6.72
O=c1cc(-c2ccc(O)cc2)oc2cc(O)cc(O)c12 [APIGENIN]	4.1 µM	–	–	–
COc1ccc(-c2cc(=O)c3cc(OC)c4cccc(OC)c4c3[nH]2)cc1	–	–	–	pIC50 (Cytochrome P450 1B1 [1]): 8.39
